Experimental data as given in patent US20160067208A1, “ADHESION PREVENTING AGENT” (FARNEX INCORPORATED, priority 2013, published 2016).

What was measured:
Assay type in all cases: physicochemical
[1] = Preparability and temperature stability of comparative formulations; conditions: 0.65 cs dimethicone (GMO: 1.00 g in 2.33 g)
Experimental: 2.33 g of 0.65 cs dimethicone (Dow Corning Q7-9180 Silocon Fluid 0.65 CST) was added to 1.00 g of GMO (Rikemal XO-100L, Riken Vitamin Co., Ltd.), followed by stirring to prepare a solution.
Additionally, an o/w dispersion of GMO having the same composition as test sample 18 as described above was prepared, and stored at a refrigerated temperature (7° C.). […] Thus, it is shown that the o/w dispersion of GMO has low temperature stability.
In accordance with Example 14 described in JP Patent Publication No. 2008-528463A, GDO (4.30 g), SPC (Lecinol S-10E, 2.90 g), P80 (1.80 g), and ethanol (1.00 g) were mixed to prepare a liquid crystal precursor composition (GDO/SPC/P80/EtOH=43:29:18:10).
6 mL of distilled water was added to 1.388 g of the liquid crystal precursor composition, followed by stirring for 1 hour to prepare test sample 6 (GDO/SPC/P80/EtOH/water=[…]:81.2).
Thus, it was impossible to prepare a lipid/dimethicone preparation, unlike test samples 13, 14, 21 and 23. […] It was considered that this was due to high viscosity of the sample.

[2] = SAXS analysis of compound/water system (liquid crystal formation); conditions: compound/water system gel, 50% by mass in water-excess condition, room temperature (25° C.)
Text: Whether or not a liquid crystal structure has a cubic lattice may be determined by a small-angle X-ray scattering (SAXS) method, for the purpose of confirming liquid crystal formation. First, an amphipathic compound/water system sample with a predetermined concentration can be filled into an X-ray capillary tube made of quartz, for example, and the capillary tube is sealed with an oxy-fuel burner, and subjected to SAXS assay.
Mono-O-(5,9,13-trimethyltetradeca-4,8,12-trienoyl)glycerol synthesized in Example 1 and pure water were introduced into a mixing device at the concentration of 50% by mass of mono-O-(5,9,13-trimethyltetradeca-4,8,12-trienoyl)glycerol (in water-excess condition), and they were mixed at room temperature (25° C.) and left for 24 hours to obtain a homogeneous mixture. Then the separated water was removed. Thus, a sample of mono-O-(5,9,13-trimethyltetradeca-4,8,12-trienoyl)glycerol/water system was obtained as a white turbid to colorless transparent gel composition in appearance (it was referred to below as the gel sample).
Subsequently, the gel sample was analyzed by small-angle x-ray scattering (SAXS). The NANO-Viewer nano-scale X-ray structure analysis equipment (Rigaku) was used for SAXS analysis, which was performed by X-ray irradiation at room temperature (25° C.), 40 kV, 50 mA, wavelength λ=0.1542 nm (Cu-Kα).
Each of the compounds synthesized in Example 32, 33, 43, 45, 49, and 50 and water were homogeneously mixed in accordance with the same procedure as in Example 9 to obtain a sample of each compound/water system being a gel in appearance. SAXS analysis of these gel samples was performed in the same manner as in Example 9. […]

[3] = Shear viscosity of liquid crystal gels; conditions: gel prepared by addition of water, 25° C.
Experimental: (§1) The viscosity was measured for the gels prepared by addition of water to the compounds synthesized in Examples 1, 4, and 5. Specifically, for the gel samples obtained by mixing homogeneously according to the same procedure as in Example 9, the shear viscosity was measured at a temperature of 25° C., using a viscosity and viscoelasticity measuring apparatus (Gemini II, Malvern Instruments Ltd.; cone plate φ25, cone angle 1°).
as §1, with “45” for “1, 4,”, “50, and C17 glycerin ester synthesized in Example 13.” for “5.”

[4] = Viscosity of the compound itself (Gemini II, Malvern); conditions: 25° C., at shear velocity of 92 1/s
Experimental: In addition, the amphipathic compound to be used for the adhesion preventing agent of the present invention has low viscosity in itself. Specifically, the amphipathic compound to be used for the adhesion preventing agent of the present invention has a viscosity of preferably 15.0 Pa·s or less, more preferably 11.0 Pa·s or less, and further preferably 6.0 Pa·s or less as measured at 25° C. in itself. The viscosity can be measured using, for example, a viscosity and viscoelasticity measuring apparatus (Gemini II, Malvern Instruments Ltd.) at 25° C.
The viscosity of each of the compounds described in the Examples 1-7 was measured using a viscosity/viscoelasticity measuring instrument (Gemini II, Malvern) at the temperature of 25° C.

SMILES	state / solubility in dimethicone [1]	liquid crystal structure (SAXS peak value ratio) [2]	Viscosity ([3]; shear velocity 10 1/s)	Viscosity ([3]; shear velocity 105 1/s)	Viscosity [4]
CCCCCCCC/C=C\CCCCCCCC(=O)OCC(O)CO (centres unmarked) [GMO, Glyceryl Monooleate]	crystals were precipitated	–	–	–	–
CC(C)=CCC/C(C)=C/CC/C(C)=C/CCC(C)=CCOCC(O)C(O)CO (centres unmarked) [Example 45, mono-O-(3,7,11,15-tetramethylhexadeca-2,6,10,14-tetraenyl)erythritol]	–	cubic liquid crystals that belong to the crystallographic space group Pn3m	314 Pas · sec	4.3 Pas · sec	1.9 Pa·s
